Measurements taken from ChEMBL document CHEMBL3046494, “Identification of liver X receptor and farnesoid X receptor dual agonists from Tithonia diversifolia” (Med Chem Res, 2013).
Activity calls are given as the source filed them. The calls are words filed in the database; no cut-off is given here.

Tests used:
Type in all cases: cell-based
HepG2 = assay: Cytotoxicity against Homo sapiens (human) HepG2 cells after 48 hr; details: hepg2, 48 h
[1] = target: T1, Oxysterols receptor LXR-beta (Homo sapiens) (UniProt P55055); assay: Agonist activity at Homo sapiens (human) LXRbeta expressed in HepG2 cells assessed as transactivation of ABCA1 gene expression at 1 uM after 48 hr by luciferase reporter gene assay relative to control
T1 sequence (whole entry): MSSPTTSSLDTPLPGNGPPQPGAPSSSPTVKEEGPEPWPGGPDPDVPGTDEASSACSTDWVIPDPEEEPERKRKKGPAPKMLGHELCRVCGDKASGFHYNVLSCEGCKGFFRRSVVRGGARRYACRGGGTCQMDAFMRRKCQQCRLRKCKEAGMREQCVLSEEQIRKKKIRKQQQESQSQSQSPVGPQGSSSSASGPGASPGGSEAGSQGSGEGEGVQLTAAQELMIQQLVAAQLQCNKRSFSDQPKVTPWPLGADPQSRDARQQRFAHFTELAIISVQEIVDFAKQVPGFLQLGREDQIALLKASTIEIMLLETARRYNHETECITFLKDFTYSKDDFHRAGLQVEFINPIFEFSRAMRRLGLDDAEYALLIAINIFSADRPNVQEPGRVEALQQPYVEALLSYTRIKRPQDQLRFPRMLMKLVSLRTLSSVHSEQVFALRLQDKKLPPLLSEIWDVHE

[2] = target: T2, Oxysterols receptor LXR-alpha (Homo sapiens) (UniProt Q13133); assay: Agonist activity at Homo sapiens (human) LXRalpha expressed in HepG2 cells assessed as transrepression of PEPCK gene expression after 48 hr by luciferase reporter gene assay
T2 sequence (whole entry): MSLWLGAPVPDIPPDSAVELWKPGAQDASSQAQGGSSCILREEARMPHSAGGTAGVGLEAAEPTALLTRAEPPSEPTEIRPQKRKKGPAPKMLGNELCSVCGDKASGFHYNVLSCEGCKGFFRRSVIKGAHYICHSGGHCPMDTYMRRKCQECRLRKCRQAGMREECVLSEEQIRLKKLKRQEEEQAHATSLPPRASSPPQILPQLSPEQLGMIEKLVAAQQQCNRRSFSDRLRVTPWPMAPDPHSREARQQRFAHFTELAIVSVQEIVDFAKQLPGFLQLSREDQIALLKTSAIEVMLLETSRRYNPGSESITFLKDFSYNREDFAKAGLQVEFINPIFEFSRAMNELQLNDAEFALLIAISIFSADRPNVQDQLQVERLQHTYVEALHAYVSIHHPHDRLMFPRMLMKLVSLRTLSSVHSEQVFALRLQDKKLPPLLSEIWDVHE

[3] = target: T1, Oxysterols receptor LXR-beta (Homo sapiens); assay: Agonist activity at Homo sapiens (human) LXRbeta expressed in HepG2 cells assessed as transactivation of ABCA1 gene expression at 10 uM after 48 hr by luciferase reporter gene assay relative to control
[4] = target: T2, Oxysterols receptor LXR-alpha (Homo sapiens); assay: Agonist activity at Homo sapiens (human) LXRalpha expressed in HepG2 cells assessed as PEPCK gene expression at 100 nM after 48 hr by luciferase reporter gene assay relative to control
[5] = target: T2, Oxysterols receptor LXR-alpha (Homo sapiens); assay: Agonist activity at Homo sapiens (human) LXRalpha expressed in HepG2 cells assessed as transactivation of SREBP1c gene expression at 1 uM after 48 hr by luciferase reporter gene assay relative to control
[6] = target: T1, Oxysterols receptor LXR-beta (Homo sapiens); assay: Agonist activity at Homo sapiens (human) LXRbeta expressed in HepG2 cells assessed as transactivation of ABCA1 gene expression after 48 hr by luciferase reporter gene assay
[7] = target: T3, Bile acid receptor (Homo sapiens) (UniProt Q96RI1); assay: Agonist activity at Homo sapiens (human) FXR ligand binding domain expressed in HepG2 cells assessed as transactivation of GAL4 gene expression at 1 uM after 48 hr by luciferase reporter gene assay relative to control
T3 sequence (whole entry): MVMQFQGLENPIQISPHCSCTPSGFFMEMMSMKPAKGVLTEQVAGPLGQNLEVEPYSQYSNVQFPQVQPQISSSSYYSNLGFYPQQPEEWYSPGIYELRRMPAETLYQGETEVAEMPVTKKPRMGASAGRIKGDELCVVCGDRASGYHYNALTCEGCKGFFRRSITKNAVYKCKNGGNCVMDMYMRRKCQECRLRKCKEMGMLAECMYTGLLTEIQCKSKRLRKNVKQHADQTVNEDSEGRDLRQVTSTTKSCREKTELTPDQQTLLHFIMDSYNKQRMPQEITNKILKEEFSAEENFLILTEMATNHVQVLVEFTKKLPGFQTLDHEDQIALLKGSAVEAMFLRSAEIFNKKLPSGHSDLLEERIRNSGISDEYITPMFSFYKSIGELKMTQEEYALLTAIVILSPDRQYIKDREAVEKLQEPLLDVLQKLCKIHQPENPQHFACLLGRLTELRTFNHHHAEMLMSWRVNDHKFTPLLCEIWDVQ

[8] = target: T3, Bile acid receptor (Homo sapiens); assay: Agonist activity at Homo sapiens (human) FXR ligand binding domain expressed in HepG2 cells assessed as transactivation of GAL4 gene expression at 100 nM after 48 hr by luciferase reporter gene assay relative to control
[9] = target: T2, Oxysterols receptor LXR-alpha (Homo sapiens); assay: Agonist activity at Homo sapiens (human) LXRalpha expressed in HepG2 cells assessed as transactivation of CYP7A1 gene expression at 10 uM after 48 hr by luciferase reporter gene assay relative to vehicle-treated control
[10] = target: T3, Bile acid receptor (Homo sapiens); assay: Agonist activity at Homo sapiens (human) FXR ligand binding domain expressed in HepG2 cells assessed as transactivation of SHP gene expression at 10 uM after 48 hr by luciferase reporter gene assay relative to control
[11] = target: T3, Bile acid receptor (Homo sapiens); assay: Agonist activity at Homo sapiens (human) FXR ligand binding domain expressed in HepG2 cells assessed as transactivation of SHP gene expression at 100 nM after 48 hr by luciferase reporter gene assay relative to control
[12] = target: T2, Oxysterols receptor LXR-alpha (Homo sapiens); assay: Agonist activity at Homo sapiens (human) LXRalpha expressed in HepG2 cells assessed as transactivation of ABCA1 gene expression after 48 hr by luciferase reporter gene assay
[13] = target: T2, Oxysterols receptor LXR-alpha (Homo sapiens); assay: Agonist activity at Homo sapiens (human) LXRalpha expressed in HepG2 cells assessed as transactivation of SREBP1c gene expression at 10 uM after 48 hr by luciferase reporter gene assay relative to control
[14] = target: T2, Oxysterols receptor LXR-alpha (Homo sapiens); assay: Agonist activity at Homo sapiens (human) LXRalpha expressed in HepG2 cells assessed as decrease in PEPCK gene transactivation at 10 uM after 48 hr by luciferase reporter gene assay relative to control; parameters: scale not given: the % may be the effect or the level left
[15] = target: T2, Oxysterols receptor LXR-alpha (Homo sapiens); assay: Agonist activity at Homo sapiens (human) LXRalpha expressed in HepG2 cells assessed as transactivation of SREBP1c gene expression after 48 hr by luciferase reporter gene assay
[16] = target: T2, Oxysterols receptor LXR-alpha (Homo sapiens); assay: Agonist activity at Homo sapiens (human) LXRalpha expressed in HepG2 cells assessed as transactivation of ABCA1 gene expression at 10 uM after 48 hr by luciferase reporter gene assay relative to control

| fold change (FC) [1] | Activity [2] | fold change (FC) [3] | fold change (FC) [4] | fold change (FC) [5] | Activity [6] | fold change (FC) [7] | Activity [8] | fold change (FC) [9] | fold change (FC) [10] | Activity [11] | Activity [12] | fold change (FC) [13] | Activity [14] [%] | Activity [15] | fold change (FC) [16] | Activity [4] | SMILES | Activity (HepG2) |
| --- | --- | --- | --- | --- | --- | --- | --- | --- | --- | --- | --- | --- | --- | --- | --- | --- | --- | --- |
| – | – | – | – | – | – | – | – | – | – | – | – | – | – | – | – | – | C=C1C(=O)O[C@@H]2/C=C(/C)C(=O)/C=C/[C@](C)(O)C[C@@H](OC(=O)C(C)C)[C@@H]12 [TAGITININ C] | Toxic |
| 1.5 | Dose-dependent effect | 2.2 | 0.94 | 2.3 | Dose-dependent effect | 1.6 | inactive | 2 | 2.41 | inactive | Dose-dependent effect | 4.52 | 46 | Dose-dependent effect | 1.7 | – | C=C1C(=O)O[C@@H]2C[C@H](C)[C@@]3(O)CC[C@@](C)(C[C@@H](OC(=O)C(C)C)[C@@H]12)O3 [TIROTUNDIN] | Non-toxic |
| 1.5 | Dose-dependent effect | 1.5 | – | 2.26 | Dose-dependent effect | 1.6 | inactive | 2 | 2.3 | inactive | Dose-dependent effect | 3.42 | 58 | Dose-dependent effect | 1.9 | inactive | C=C1C(=O)O[C@@H]2C[C@H](C)[C@@]3(O)C[C@H](O)[C@@](C)(C[C@@H](OC(=O)C(C)C)[C@@H]12)O3 [TAGITININ A] | Non-toxic |
